From EP2535049A1 (Proyecto de Biomedicina Cima, S.L., priority 2011, dated 2012)
“And” between values parts separate entries of the source, which are not always exact repeats. Equal entries are not always repeated. “Also recorded” adds a separate entry of the source. Marks after values point to notes of the source that are not given here.

Key:
[1] = Serum and brain levels of tadalafil after oral administration (HPLC-MS); assay type: in vivo, Mouse; conditions: for logBB (brain): average of logBB data from Ctx, Str and Hip, n=6, spread = Standard Deviation
Description: BB is the ratio of brain versus serum concentration. […] In addition, considering values in the three brain regions, the compound distribution looks quite uniform. Table 2. Blood-brain barrier permeability, as logBB, for Tadalafil
For analysis samples were prepared as follows: • 100 µl of serum were treated with 300 µl of 1% formic acid in acetonitrile. Mixture was vortexed for 5 minutes. The supernatant after centrifugation was filtered using a HybridSPE™ (Supelco, Bellefonte, USA) cartridge and the eluate was dried under an air stream. The powder was reconstituted in 100 µl of 50:50 (v/v) ammonium formate (pH=3):acetonitrile. After centrifugation the supernatant was used for analysis. • 100 mg of brain sample were treated with 600 µl of 1% formic acid in acetonitrile. The mixture was sonicated for 10 seconds and centrifuged for 5 minutes. The supernatant after centrifugation was filtered using a HybridSPE™ (Supelco, Bellefonte, USA) cartridge and the eluate was dried under an air stream. The powder was reconstituted in 100 µl of 50:50 (v/v) ammonium formate (pH=3):acetonitrile. After centrifugation the supernatant was used for analysis.

[2] = system: rat model of embolic stroke; conditions: Zhang et al. (2006); cited from earlier work
[3] = EMEA scientific discussion for Cialis (WC500026314); cited from earlier work
[4] = quoted from WO2010/074783, page 109; cited from earlier work
[5] = system: gerbils; conditions: Ko et al. (2009); cited from earlier work
[6] = system: pTau; experiment: Immunohistochemistry of pTau (PHF-1, AT8) in J20 mice; assay type: in vivo; conditions: J20 mice treated for 10 weeks
Description: Results were compared with those obtained from age-matched negative littermates (controls). To test the effect of the PDE5 inhibitors in cognition capacity related to aging, a second treatment was carried out using 10-12 month-old non-transgenic (wild type) mice on an inbred C57/B6xSJL genetic background.
Twenty four hours after the fear conditioning test, animals (n=5, per group) were sacrificed and the brains removed for biochemical studies. The cortex and hippocampus were dissected, homogenized, and processed as described below for subsequent western blot analysis. Under xylazine/ketamine anesthesia, animals (n=4 per group) were perfused transcardially with saline and 4% paraformaldehyde in phosphate buffer (PB). After perfusion, brains were removed, post-fixed in the same fixative solution for 1 h at room temperature and cryoprotected in 30% sucrose solution in PB overnight at 4 °C. […]
For p-tau staining, slides were incubated in blocking solution (3% milk in TBS) and incubated overnight with primary antibody AT8 (1:50 v/v, Pierce, Woburn, MA, USA) or PHF1 (1:100 v/v, Dr. Peter Davies, Albert Einstein College, Bronx, NY, USA) at 4 °C. […] Fluorescence signals were detected with confocal microscope LSM 510 Meta (Carl Zeiss, Germany); objective Plan-neofluar 40x/1.3 oil DIC. Sections were evaluated in Z-series (0.4 microm steps) using LSM 510 Meta software.

[7] = system: maternal-separated rat pups; conditions: Baek et al. (2011); cited from earlier work
[8] = system: central nervous system (CNS) function; conditions: doses ≤100 mg/kg orally; EMEA assessment report for Adcirca (WC500069602); cited from earlier work
[9] = BB = ratio of brain versus serum concentration, n=6 treated mice, (Standard Deviation)
[10] = concentration of tadalafil 90 minutes after oral administration of Cialis (15 mg/Kg), individual mice

CN1CC(=O)N2[C@H](c3ccc4c(c3)OCO4)c3[nH]c4ccccc4c3C[C@@H]2C1=O [tadalafil, (6R-trans)-6-(1,3-benzodioxol-5-yl)-2,3,6,7,12,12a-hexahydro-2-methyl-pyrazino [1',2':1,6] pyrido [3,4-b]indole-1,4-dione]
logBB (Ctx) [1, 9]: -0.89 (0.16)^b
logBB (Hip) [1, 9]: -0.81 (0.17)^b
logBB (Str) [1, 9]: -0.98 (0.13)^b
Hip ([1]; Hippocampus, 90 minutes after oral administration of Cialis (15 mg/Kg), individual mice): 0.45 µM and 0.91 µM and 1.54 µM and 2.19 µM and 1.48 µM and 1.35 µM
Ctx ([1]; Prefrontal Cortex, 90 minutes after oral administration of Cialis (15 mg/Kg), individual mice): 0.61 µM and 1.25 µM and 1.22 µM and 1.35 µM and 0.73 µM and 0.91 µM
Str ([1]; Striatum, 90 minutes after oral administration of Cialis (15 mg/Kg), individual mice): 0.39 µM and 0.82 µM and 1.09 µM (2×) and 0.72 µM and 0.93 µM
logBB (brain) [1]: -0.89+/-0.09
logBB (brain) ([1]; listed as Tadalafil): -0.89 (0.09)^b
Serum (µM) [1, 10]: 4,95 µM
concentration at 90 min [1, 10]: 9.65 µM and 7.27 µM and 10.23 µM and 8.10 µM
Kp at 90 min ([1]; mouse, oral, 15 mg/Kg, from logBB of the three brain areas): ~0.12
concentration at 90 min ([1]; mouse, serum, oral, 15 mg/Kg, concentration of tadalafil 90 minutes after oral administration of Cialis (15 mg/Kg), individual mice): 6.53 µM
neurological functional recovery [2]: improves neurological functional recovery
observed in the central nervous system [3]: not observed
ability to cross the BBB [4]: unable to cross the BBB
short-term memory [5]: improves short-term memory
pTau levels, PHF-1 anti-p-Tau Ser-396/404 antibody labeling ([6]; hippocampal and cortical slices): decrease in pTau levels; also recorded: much more marked than in animals treated with sildenafil
pTau pathology, anti-pTau antibody recognizing Ser202 and Thr205 (AT8) labeling ([6]; hippocampus slices): lesser pTau pathology in animals treated with tadalafil than with sildenafil
depressive symptoms, memory impairment, apoptosis and cell proliferation in the hippocampus [7]: improves depressive symptoms, ameliorates memory impairment, as well as suppresses apoptosis and enhances cell proliferation
effects on central nervous system (CNS) function [8]: no effects
